Assay results from ChEMBL document CHEMBL3352489, “6-Hydroxyquinolinium salts differing in the length of alkyl side-chain: synthesis and antimicrobial activity” (Bioorg Med Chem Lett, 2014).
Values belong to the compound of their own block, whether it stands above or below them.

Legend:
[1] = test system: Enterococcus sp.; experiment: microbe, parasite or virus in culture; format: functional; conditions: J 14365/08, 48 h
Description: Antibacterial activity against Enterococcus sp. J 14365/08 after 48 hrs by microdilution broth method

[2] = test system: Escherichia coli; experiment: microbe, parasite or virus in culture; format: functional; conditions: CCM 4517, 48 h
Description: Antibacterial activity against Escherichia coli CCM 4517 after 48 hrs by microdilution broth method

[3] = test system: Candida tropicalis; experiment: Fungicidal activity against Candida tropicalis 156 after 48 hrs by modified standard CSLI M27-A2 method; format: functional; conditions: Candida tropicalis, 156, 48 h
[4] = test system: Enterococcus sp.; experiment: microbe, parasite or virus in culture; format: functional; conditions: J 14365/08, 24 h
Description: Antibacterial activity against Enterococcus sp. J 14365/08 after 24 hrs by microdilution broth method

[5] = test system: Pichia kudriavzevii; experiment: Fungicidal activity against Candida krusei E28 after 48 hrs by modified standard CSLI M27-A2 method; format: functional; conditions: E28, 48 h
[6] = test system: Trichophyton mentagrophytes; experiment: microbe, parasite or virus in culture; format: functional; conditions: Trichophyton mentagrophytes, 445, 120 h
Description: Antifungal activity against Trichophyton mentagrophytes 445 after 120 hrs by modified standard CSLI M27-A2 method

[7] = test system: Nakaseomyces glabratus; experiment: Antifungal activity against Candida glabrata 20/I after 48 hrs by modified standard CSLI M27-A2 method; format: functional
[8] = test system: Klebsiella pneumoniae; experiment: microbe, parasite or virus in culture; format: functional; conditions: D 11750/08, 48 h
Description: Antibacterial activity against Klebsiella pneumoniae D 11750/08 after 48 hrs by microdilution broth method

[9] = Cytotoxicity against CHOK1 cells after 24 hrs by MTT assay; format: ADME, cell-based; conditions: Cricetulus griseus, CHO-K1, 24 h
[10] = test system: Trichosporon asahii; experiment: microbe, parasite or virus in culture; format: functional; conditions: Trichosporon asahii, 1188, 24 h
Description: Antifungal activity against Trichosporon asahii 1188 after 24 hrs by modified standard CSLI M27-A2 method

[11] = test system: Aspergillus fumigatus; experiment: microbe, parasite or virus in culture; format: functional; conditions: Aspergillus fumigatus, 231, 24 h
Description: Antifungal activity against Aspergillus fumigatus 231 after 24 hrs by modified standard CSLI M27-A2 method

[12] = test system: Klebsiella pneumoniae; experiment: microbe, parasite or virus in culture; format: functional; conditions: J 14368/08, 24 h
Description: Antibacterial activity against Klebsiella pneumoniae J 14368/08 after 24 hrs by microdilution broth method

[13] = test system: Staphylococcus aureus; experiment: microbe, parasite or virus in culture; format: functional; conditions: H 5996/08, 48 h
Description: Antibacterial activity against Staphylococcus aureus H 5996/08 after 48 hrs by microdilution broth method

[14] = test system: Staphylococcus aureus; experiment: microbe, parasite or virus in culture; format: functional; conditions: H 5996/08, 24 h
Description: Antibacterial activity against Staphylococcus aureus H 5996/08 after 24 hrs by microdilution broth method

[15] = test system: Candida tropicalis; experiment: microbe, parasite or virus in culture; format: functional; conditions: Candida tropicalis, 156, 48 h
Description: Antifungal activity against Candida tropicalis 156 after 48 hrs by modified standard CSLI M27-A2 method

[16] = test system: Klebsiella pneumoniae; experiment: microbe, parasite or virus in culture; format: functional; conditions: J 14368/08, 48 h
Description: Antibacterial activity against Klebsiella pneumoniae J 14368/08 after 48 hrs by microdilution broth method

[17] = test system: Trichophyton mentagrophytes; experiment: Fungicidal activity against Trichophyton mentagrophytes 445 after 120 hrs by modified standard CSLI M27-A2 method; format: functional; conditions: Trichophyton mentagrophytes, 445, 120 h
[18] = test system: Staphylococcus aureus; experiment: Bactericidal activity against Staphylococcus aureus H 5996/08 after 48 hrs by microdilution broth method; format: functional; conditions: H 5996/08, 48 h, read-out: MBC>99.9
[19] = test system: Aspergillus fumigatus; experiment: Fungicidal activity against Aspergillus fumigatus 231 after 48 hrs by modified standard CSLI M27-A2 method; format: functional; conditions: Aspergillus fumigatus, 231, 48 h
[20] = test system: Staphylococcus aureus; experiment: microbe, parasite or virus in culture; format: functional; conditions: CCM 4516/08, 48 h
Description: Antibacterial activity against Staphylococcus aureus CCM 4516/08 after 48 hrs by microdilution broth method

[21] = test system: Candida albicans; experiment: microbe, parasite or virus in culture; format: functional; conditions: ATCC 44859, 24 h
Description: Antifungal activity against Candida albicans ATCC 44859 after 24 hrs by modified standard CSLI M27-A2 method

[22] = Retention time of the compound by isocratic elution based HPLC method; format: physicochemical
[23] = test system: Klebsiella pneumoniae; experiment: microbe, parasite or virus in culture; format: functional; conditions: D 11750/08, 24 h
Description: Antibacterial activity against Klebsiella pneumoniae D 11750/08 after 24 hrs by microdilution broth method

[24] = test system: Lichtheimia corymbifera; experiment: microbe, parasite or virus in culture; format: functional; conditions: Lichtheimia corymbifera, 272, 48 h
Description: Antifungal activity against Absidia corymbifera 272 after 48 hrs by modified standard CSLI M27-A2 method

[25] = test system: Lichtheimia corymbifera; experiment: Fungicidal activity against Absidia corymbifera 272 after 48 hrs by modified standard CSLI M27-A2 method; format: functional; conditions: Lichtheimia corymbifera, 272, 48 h
[26] = test system: Klebsiella pneumoniae; experiment: Bactericidal activity against Klebsiella pneumoniae D 11750/08 after 24 hrs by microdilution broth method; format: functional; conditions: D 11750/08, 24 h, read-out: MBC>99.9
[27] = test system: Pseudomonas aeruginosa; experiment: Bactericidal activity against Pseudomonas aeruginosa CCM 1961 after 120 hrs by microdilution broth method; format: functional; conditions: CCM 1961, 120 h, read-out: MBC>99.9
[28] = Retention time of the compound by gradient elution based HPLC method; format: physicochemical
[29] = test system: Candida tropicalis; experiment: microbe, parasite or virus in culture; format: functional; conditions: Candida tropicalis, 156, 24 h
Description: Antifungal activity against Candida tropicalis 156 after 24 hrs by modified standard CSLI M27-A2 method

[30] = test system: Pseudomonas aeruginosa; experiment: microbe, parasite or virus in culture; format: functional; conditions: CCM 1961, 120 h
Description: Antibacterial activity against Pseudomonas aeruginosa CCM 1961 after 120 hrs by microdilution broth method

[31] = test system: Escherichia coli; experiment: Bactericidal activity against Escherichia coli CCM 4517 after 48 hrs by microdilution broth method; format: functional; conditions: CCM 4517, 48 h, read-out: MBC>99.9
[32] = test system: Escherichia coli; experiment: microbe, parasite or virus in culture; format: functional; conditions: CCM 4517, 24 h
Description: Antibacterial activity against Escherichia coli CCM 4517 after 24 hrs by microdilution broth method

[33] = test system: Lichtheimia corymbifera; experiment: microbe, parasite or virus in culture; format: functional; conditions: Lichtheimia corymbifera, 272, 24 h
Description: Antifungal activity against Absidia corymbifera 272 after 24 hrs by modified standard CSLI M27-A2 method

[34] = test system: Trichosporon asahii; experiment: Fungicidal activity against Trichosporon asahii 1188 after 48 hrs by modified standard CSLI M27-A2 method; format: functional; conditions: Trichosporon asahii, 1188, 48 h
[35] = test system: Trichophyton mentagrophytes; experiment: microbe, parasite or virus in culture; format: functional; conditions: Trichophyton mentagrophytes, 445, 72 h
Description: Antifungal activity against Trichophyton mentagrophytes 445 after 72 hrs by modified standard CSLI M27-A2 method

[36] = test system: Nakaseomyces glabratus; experiment: Antifungal activity against Candida glabrata 20/I after 24 hrs by modified standard CSLI M27-A2 method; format: functional
[37] = test system: Enterococcus sp.; experiment: Bactericidal activity against Enterococcus sp. J 14365/08 after 48 hrs by microdilution broth method; format: functional; conditions: J 14365/08, 48 h, read-out: MBC>99.9
[38] = test system: Pichia kudriavzevii; experiment: Antifungal activity against Candida krusei E28 after 24 hrs by modified standard CSLI M27-A2 method; format: functional; conditions: E28, 24 h
[39] = test system: Trichosporon asahii; experiment: microbe, parasite or virus in culture; format: functional; conditions: Trichosporon asahii, 1188, 48 h
Description: Antifungal activity against Trichosporon asahii 1188 after 48 hrs by modified standard CSLI M27-A2 method

[40] = test system: Staphylococcus aureus; experiment: Bactericidal activity against Staphylococcus aureus CCM 4516/08 after 48 hrs by microdilution broth method; format: functional; conditions: CCM 4516/08, 48 h, read-out: MBC>99.9
[41] = test system: Pichia kudriavzevii; experiment: Antifungal activity against Candida krusei E28 after 48 hrs by modified standard CSLI M27-A2 method; format: functional; conditions: E28, 48 h
[42] = test system: Staphylococcus epidermidis; experiment: microbe, parasite or virus in culture; format: functional; conditions: H 6966/08, 24 h
Description: Antibacterial activity against Staphylococcus epidermidis H 6966/08 after 24 hrs by microdilution broth method

[43] = test system: Pseudomonas aeruginosa; experiment: microbe, parasite or virus in culture; format: functional; conditions: CCM 1961, 72 h
Description: Antibacterial activity against Pseudomonas aeruginosa CCM 1961 after 72 hrs by microdilution broth method

[44] = test system: Staphylococcus epidermidis; experiment: Bactericidal activity against Staphylococcus epidermidis H 6966/08 after 48 hrs by microdilution broth method; format: functional; conditions: H 6966/08, 48 h, read-out: MBC>99.9
[45] = test system: Candida albicans; experiment: Fungicidal activity against Candida albicans ATCC 44859 after 48 hrs by modified standard CSLI M27-A2 method; format: functional; conditions: ATCC 44859, 48 h
[46] = test system: Staphylococcus aureus; experiment: microbe, parasite or virus in culture; format: functional; conditions: CCM 4516/08, 24 h
Description: Antibacterial activity against Staphylococcus aureus CCM 4516/08 after 24 hrs by microdilution broth method

[47] = test system: Nakaseomyces glabratus; experiment: Fungicidal activity against Candida glabrata 20/I after 48 hrs by modified standard CSLI M27-A2 method; format: functional
[48] = test system: Klebsiella pneumoniae; experiment: Bactericidal activity against Klebsiella pneumoniae J 14368/08 after 48 hrs by microdilution broth method; format: functional; conditions: J 14368/08, 48 h, read-out: MBC>99.9
[49] = test system: Candida albicans; experiment: microbe, parasite or virus in culture; format: functional; conditions: ATCC 44859, 48 h
Description: Antifungal activity against Candida albicans ATCC 44859 after 48 hrs by modified standard CSLI M27-A2 method

[50] = test system: Staphylococcus epidermidis; experiment: microbe, parasite or virus in culture; format: functional; conditions: H 6966/08, 48 h
Description: Antibacterial activity against Staphylococcus epidermidis H 6966/08 after 48 hrs by microdilution broth method

[51] = test system: Aspergillus fumigatus; experiment: microbe, parasite or virus in culture; format: functional; conditions: Aspergillus fumigatus, 231, 48 h
Description: Antifungal activity against Aspergillus fumigatus 231 after 48 hrs by modified standard CSLI M27-A2 method

SMILES: CCCCCCCCCCCCCC[n+]1cccc2cc(O)ccc21.[Br-]
MIC95 [1]: 1.95 µM
MIC95 [2]: 31.2 µM
MFC [3]: 15.6 µM
MIC95 [4]: 1.95 µM
MFC [5]: 7.81 µM
MIC [6]: 7.81 µM
MIC [7]: 3.91 µM
MIC95 [8]: 62.5 µM
IC50 [9]: 32 µM
MIC [10]: 15.6 µM
MIC [11]: 15.6 µM
MIC95 [12]: 31.2 µM
MIC95 [13]: 7.81 µM
MIC95 [14]: 7.81 µM
MIC [15]: 15.6 µM
MIC95 [16]: 31.2 µM
MFC [17]: 15.6 µM
MBC [18]: 15.6 µM
MFC [19]: 250 µM
MIC95 [20]: 1.95 µM
MIC [21]: 7.81 µM
Retention_time [22]: 1.65 min
MIC95 [23]: 62.5 µM
MIC [24]: 31.2 µM
MFC [25]: 125 µM
MBC [26]: 62.5 µM
MBC [27]: 250 µM
Retention_time [28]: 10.05 min
MIC [29]: 15.6 µM
MIC95 [30]: 250 µM
MBC [31]: 62.5 µM
MIC95 [32]: 31.2 µM
MIC [33]: 31.2 µM
MFC [34]: 31.2 µM
MIC [35]: 7.81 µM
MIC [36]: 3.91 µM
MBC [37]: 15.6 µM
MIC [38]: 7.81 µM
MIC [39]: 31.2 µM
MBC [40]: 7.81 µM
MIC [41]: 7.81 µM
MIC95 [42]: 0.98 µM
MIC95 [43]: 125 µM
MBC [44]: 3.91 µM
MFC [45]: 15.6 µM
MIC95 [46]: 1.95 µM
MFC [47]: 15.6 µM
MBC [48]: 62.5 µM
MIC [49]: 15.6 µM
MIC95 [50]: 0.98 µM
MIC [51]: 31.2 µM

SMILES: CCCCCCCCCCCCCCCC[n+]1cccc2cc(O)ccc21.[Br-]
MIC95 [1]: 3.91 µM
MIC95 [2]: 500 µM
MFC [3]: 62.5 µM
MIC95 [4]: 3.91 µM
MFC [5]: 125 µM
MIC [6]: 3.91 µM
MIC [7]: 3.91 µM
MIC95 [8]: > 500 µM
IC50 [9]: 20 µM
MIC [10]: 7.81 µM
MIC [11]: 15.6 µM
MIC95 [12]: > 500 µM
MIC95 [13]: 3.91 µM
MIC95 [14]: 3.91 µM
MIC [15]: 7.81 µM
MIC95 [16]: > 500 µM
MFC [17]: 3.91 µM
MBC [18]: 3.91 µM
MFC [19]: 250 µM
MIC95 [20]: 0.98 µM
MIC [21]: 7.81 µM
Retention_time [22]: 3.3 min
MIC95 [23]: > 500 µM
MIC [24]: 7.81 µM
MFC [25]: 500 µM
MBC [26]: > 500 µM
MBC [27]: > 500 µM
Retention_time [28]: 10.77 min
MIC [29]: 7.81 µM
MIC95 [30]: > 500 µM
MBC [31]: 500 µM
MIC95 [32]: 500 µM
MIC [33]: 7.81 µM
MFC [34]: 62.5 µM
MIC [35]: 3.91 µM
MIC [36]: 3.91 µM
MBC [37]: 7.81 µM
MIC [38]: 3.91 µM
MIC [39]: 7.81 µM
MBC [40]: 7.81 µM
MIC [41]: 3.91 µM
MIC95 [42]: 0.49 µM
MIC95 [43]: > 500 µM
MBC [44]: 3.91 µM
MFC [45]: 62.5 µM
MIC95 [46]: 0.98 µM
MFC [47]: 125 µM
MBC [48]: > 500 µM
MIC [49]: 7.81 µM
MIC95 [50]: 0.49 µM
MIC [51]: 15.6 µM

Retention_time [22]: 7.06 min
Retention_time [28]: 11.47 min
SMILES: CCCCCCCCCCCCCCCCCC[n+]1cccc2cc(O)ccc21.[Br-]
